Legend:
Rhizoctonia solani [1] = assay: Fungicidal activity against Rhizoctonia solani inoculated on compound pre-treated fifth-leaf stage rice seedlings through foliar spraying assessed as inhibition of rice sheath blight disease at 100 ppm measured 4 days post fungal inoculation
Rhizoctonia solani [2] = assay: Fungicidal activity against Rhizoctonia solani inoculated on compound pre-treated fifth-leaf stage rice seedlings through foliar spraying assessed as inhibition of rice sheath blight disease at 500 ppm measured 4 days post fungal inoculation

SMILES	inhibition at 100 ppm (Rhizoctonia solani [1]) [%]	inhibition at 500 ppm (Rhizoctonia solani [2]) [%]
CCc1cc(-c2nnc(SC)o2)n(C)n1	50	90
CCSc1nnc(-c2c(Cl)c(CC)nn2C)s1	90	90
COC(=O)Nc1nc2ccccc2[nH]1 [CARBENDAZIM]	100	100
CCc1nn(C)c(-c2nnc(S)o2)c1Cl	0	25
CCCCCSc1nnc(-c2cc(CC)nn2C)o1	0	50
CCc1nnc(-c2c(Cl)c(CC)nn2C)o1	25	70
CCc1nn(C)c(-c2nnc(S)s2)c1Cl	90	100
CCSc1nnc(-c2cc(CC)nn2C)o1	50	90
CCCCCSc1nnc(-c2c(Cl)c(CC)nn2C)o1	25	70
CCCCCCCSc1nnc(-c2c(Cl)c(CC)nn2C)o1	50	50
CCCCCCCCSc1nnc(-c2c(Cl)c(CC)nn2C)o1	50	50
CCc1nn(C)c(-c2nnc(CCl)o2)c1Cl	50	90
CCc1nn(C)c(-c2nnc(SC)o2)c1Cl	70	90
CCCSc1nnc(-c2cc(CC)nn2C)o1	25	70
CCCCc1nnc(-c2c(Cl)c(CC)nn2C)o1	25	70
C=CCSc1nnc(-c2c(Cl)c(CC)nn2C)s1	25	50
CCc1nn(C)c(-c2nnc(C(F)(F)F)o2)c1Cl	25	70
CCc1nn(C)c(-c2n[nH]c(=O)o2)c1Cl	0	0
CCc1nn(C)c(-c2nn(C)c(=O)o2)c1Cl	0	25
CCOC(=O)C(C)Sc1nnc(-c2c(Cl)c(CC)nn2C)o1 (configuration not stated)	0	0
CCCSc1nnc(-c2c(Cl)c(CC)nn2C)s1	70	70
CCCSc1nnc(-c2c(Cl)c(CC)nn2C)o1	50	90
CCOC(=O)C(C)Sc1nnc(-c2cc(CC)nn2C)o1 (configuration not stated)	0	25
CCCCCSc1nnc(-c2c(Cl)c(CC)nn2C)s1	25	70
CCc1nn(C)c(-c2nnc(SC)s2)c1Cl	90	90
CCc1cc(-c2nnc(S)o2)n(C)n1	25	50
